The text below walks through data of patent publication US4997852A, “Method and composition for achieving cancer chemopreventive and chemotherapeutic activity” (priority 1989, dated 1991).

Read-outs that look alike come from different tables or passages of the source.

One data set deals with rat mammary tumors. Nature of the data set: rat mammary tumor chemoprevention and shrinkage, effective dietary levels. The format is in vivo. The following applies: for dietary level when used individually: alone.
A short description of data set [1]: weight gain of rats on CGT and HPR diets (FIG. 4). The format is in vivo, female Sprague Dawley rats. The following applies: prolonged feeding of diets containing CGT and HPR.
Protocol: (§2) They were maintained on the diets for approximately 4 mos., and were examined (palpated) for mammary tumors weekly. […] The retinoid (HPR) was first dissolved in 25 ml of a vehicle consisting of ethanol-tricaprylin-6% α-tocopherol, then thoroughly mixed with powdered rat chow.
For data set [2], the system named is MCF-7 cells. Briefly: growth of human breast cancer cell line MCF-7, 7 days. The format is cell-based. The following applies: MCF7, 168 h, 0.1 μM HPR, within 7 days, read-out: growth, % of the control. On the procedure: When higher doses (2 mmol/kg diet) of HPR were used, growth arrest was followed within 5 to 10 days by 30% regression of the DMBA-induced mammary tumors. Also, HPR (0.1μM) inhibited the […] growth of the human breast cancer cell line (MCF-7) to 50% of the control within 7 days.

The subject of data set [3] is MCF-7 cells. Briefly: growth of MCF-7 cells in GL/HPR-containing media (Table II). The following applies: 5 days. The format is cell-based, human.
Description: The values shown are the mean +/- ISE for three experiments counted in triplicates. The numbers in parenthesis indicate the number of free floating (mostly non viable) cells in the media.
A further data set deals with beta-glucuronidase. The following applies: in cells, blood, cited from earlier work.
Data set [4] relates to MCF-7 cells. Briefly: inhibition of MCF-7 breast cancer cell growth in culture (Example III). The following applies: for inhibition at 0.01 µM / inhibition at 0.1 µM / inhibition at 1 µM / inhibition at 10 µM: Homo sapiens, MCF7, read-out: inhibition of cell growth. The format is cell-based, human. On the procedure: The MCF-7 cell line was derived from a hormone-dependent metastatic breast cancer. It has retained several characteristics of differentiated mammary epithelium, Soule et al., J. Natl. Cancer Inst. 51:1409-1413 (1973), and the cells contain estrogen receptors. The MCF-7 cell line used was obtained from the OSU Cell Culture Service laboratory, but originated from the Michigan Cancer Foundation, Detroit, Mich. The MCF-7 cells were seeded at 1×10^3 cells/cm^2 in 35 mm wells containing MEM (Earle base medium) supplemented with MEM non-essential amino acids (1.0 mM), L-glutamic acid (2.0 mM), penicillin and streptomycin (100 ug/ml) and fetal calf serum (10%) as described in Ueda et al., Cancer 46:2203-2206, (1980). The cells are maintained at 37° C. in a humidified atmosphere of 5% CO2 /20% O2 with the growth medium replaced twice a week. The retinoids were dissolved in ethanol and added to the culture medium starting 24 hrs. after seeding. […] Glucarate concentrations varied from 10^-5 to 10^-8 M. Cell counts were done with a Coulter counter and viability of the cells was determined by the trypan blue exclusion method and also by their ability to resume growth after removal of inhibitory agents. Cytotoxicity was evaluated by exposing the MCF-7 cells to equimolar concentrations of the agents and examining viability after 6 days of treatment. All experiments were done in triplicate.
In this experiment series glucarate as the soluble potassium salt and 13-cis-RA were evaluated, alone and in combination, for their ability to inhibit the growth of MCF-7 breast cancer cells in culture.
The log transformed dose refers to the level in μM added to the medium as was varied from […] (0.01) μM to 10^-1 μM. The retinoid vehicle, ethanol, was added to all cultures and all values have been corrected for its slight inhibitory effect (7%).

The test system of data set [5] is 7,12-dimethylbenz(a)anthracene-induced mammary tumors. Nature of the data set: DMBA-induced mammary tumor formation in female Sprague Dawley rats (Example I). Type of data set: in vivo. The following applies: 1.0% CGT.
Protocol: as §2
Protocol: 50 d old female S.D. rats received a single dose 75 mg/kg of
with DMBA, then continued throughout the experiment.
A short description of data set [6]: weights of rats on diets (Example II, Table III). The following applies: CGT 2%, RA 1.0 mmol/kg diet. Here is the method: (§1) The 13-cis-RA was dissolved in a vehicle consisting of ethanol:tricaprylin:1:4 (v/v) and 4% w/v α-tochopherol. The mixture was added to the meal at the rate of 25 ml/2 kg then stored in the dark at -20° C. […] The same amount of vehicle was also added to the control diet and to the diets containing glucarate. Beginning 5 weeks post DMBA treatment, the rats were examined (palpated) twice every week for mammary tumors. They were also weighed once weekly throughout the 20 week period of the experiment.

In data set [7] the test system is DMBA-induced mammary tumors. Briefly: chemoprevention of DMBA-induced rat mammary carcinogenesis (Example II). Type of data set: in vivo, female Sprague Dawley rats. Here is the method: as §1
Data set [8] concerns chemical induction of tumors in rodent skin, mammary glands, lung and liver. The following applies: cited from earlier work.
The conditions of data set [9]: CGT-supplemented diet vs normal chow diet; cited from earlier work.
The subject of data set [10] is 7,12-dimethylbenz(a)anthracene-induced mammary tumorigenesis. The following applies: cited from earlier work.
The conditions of data set [11]: GL itself; cited from earlier work.

The term inhibition denotes the drop in the measured response relative to a control, in per cent.

With `CC1=C(/C=C/C(C)=C/C=C/C(C)=C/C(=O)Nc2ccc(O)cc2)C(C)(C)CCC1` [HPR, N-(4-hydroxyphenyl)retinamide, reference compound], the “dietary level when used individually” value in the data set with rat mammary tumors came to 2.00 mmol/kg. For the same molecule, the “minimum dosage consistent with maximum inhibition of carcinogenesis” value with rat mammary tumors (used alone) lay in the range of 1.0 to 1.5 mmol/kg. In addition, in data set [1], the “weight gain of rats” value was “did not affect weight gain”. Further, the activity at 0.1 µM in the data set on MCF-7 cells [2] is 50%. Also, the activity at 0.05 µM with MCF-7 cells [3] (Homo sapiens, MCF7, 120 h, HPR 5 × 10^-8 M, parenthesised, control 11, read-out: free floating cells, % of control) amounted to 7%. Also, the viability at 0.05 µM with MCF-7 cells [3] (Homo sapiens, MCF7, 120 h, HPR 5 × 10^-8 M, read-out: viable cells, % of control) was 56 ± 4%.
Consider `O=C(O)[C@@H](O)[C@@H](O)[C@H](O)[C@@H](O)C(=O)[O-].[K+]` [GT, potassium hydrogen glucarate], for which, in the data set with beta-glucuronidase (urine, intestine and liver), the inhibition of beta-glucuronidase result was “effective as inhibitors of beta-glucuronidase”. The “increase in inhibition of growth as a function of glucarate concentration” value in the data set on MCF-7 cells [4] (1000-fold range of glucarate, at 13-cis-RA 0.0, 0.1 and 1.0 μM) is listed as 7-25%. Further, in the data set with MCF-7 cells [4], the inhibition at 0.01 µM came to 0%, the inhibition at 0.1 µM worked out at 6%, the inhibition at 1 µM was found to be 6% and the inhibition at 10 µM was determined as 11%.
As to `O=C([O-])[C@@H](O)[C@@H](O)[C@H](O)[C@@H](O)C(=O)[O-].[Ca+2]` [CGT, calcium glucarate], the inhibition of beta-glucuronidase entry in the data set with beta-glucuronidase (urine, intestine and liver) was “effective as inhibitors of beta-glucuronidase”. In data set [5], this molecule yielded an inhibition of tumors/rat of 9%. In addition, the “Weights of rats on diets” value in [6] (0 weeks on diet, control 177.2 +/-10.9) is 182.2 +/-8.8 gm; in [6] (5 weeks on diet, control 218.3 +/-16.9) it was 224.8 +/-11.6 gm; in data set [6] (17 weeks on diet, control 247.0 +/-32.2), 250.3 +/-14.2 gm. The “effect on tumor incidence compared to control group” value in data set [7] (2% CGT, 64 mmol/kg diet (group II)) is “did not show any effect on tumor incidence”. Further, the “inhibition of chemical induction of tumors” value in [8] (dietary, rodent skin, mammary glands, lung, liver) is 50-70%. For the same molecule, in the data set on rat mammary tumors, the “dietary level when used individually” value was 128 mmol/kg. Further, in [1], the “weight gain of rats” value was “did not affect weight gain”. For the same molecule, the “food quantity and weight gain” value in [9] is “identical to those on the normal chow diet”. The “tumor induction, % of that in controls” value in data set [10] (4% CGT diet, by 28 weeks) was 30%. The tumor regression entry in [10] (chow diet supplemented with CGT) was “some tumors on the chow diet supplemented with CGT underwent regression”.
In the case of `O=C(O)[C@@H](O)[C@H]1OC(=O)[C@H](O)[C@H]1O` [GL, D-glucaro-1,4-lactone], the “absorption and clearance from the body” value in data set [11] was “too rapidly absorbed and cleared from the body”. Also, the inhibition of beta-glucuronidase entry with beta-glucuronidase (urine and intestine, 4-lactone) was “potent beta-glucuronidase inhibitor”; with beta-glucuronidase (urine and intestine), “potent inhibitor of beta-glucuronidase”. The “No. of viable cells” value in the data set with MCF-7 cells [3] (GL 10^-4 M, control 60400 ± 2147) amounted to 49480 ± 3160. Besides, in the data set on MCF-7 cells [3] (Homo sapiens, MCF7, 120 h, GL 10^-3 M, parenthesised, control 11, read-out: free floating cells, % of control), the activity at 1000 µM is 7%. In addition, the viability at 1000 µM in the data set on MCF-7 cells [3] (Homo sapiens, MCF7, 120 h, GL 10^-3 M, read-out: viable cells, % of control) turned out to be 54 ± 3%. For the same molecule, the activity at 100 µM in the data set with MCF-7 cells [3] (Homo sapiens, MCF7, 120 h, GL 10^-4 M, parenthesised, control 11, read-out: free floating cells, % of control) was found to be 6%. Also, in the data set with MCF-7 cells [3] (Homo sapiens, MCF7, 120 h, GL 10^-4 M, read-out: viable cells, % of control), the viability at 100 µM turned out to be 82 ± 5%.
In the case of `CC1=C(/C=C/C(C)=C/C=C/C(C)=C\C(=O)O)C(C)(C)CCC1` [13-cis-RA, 13-cis-retinoic acid, reference compound], the “effect on tumor incidence over controls” value in [7] (1.0 mmol/kg diet 13-cis-RA (group III)) is “slight, but insignificant, enhancement of tumor incidence”. For the same molecule, in the data set with MCF-7 cells [4], the inhibition at 0.01 µM was 2%, the inhibition at 0.1 µM was 9.2%, the inhibition at 1 µM came out at 12% and the inhibition at 10 µM was determined as 52.2%. For the same molecule, in the data set on MCF-7 cells [4] (concentrations above 1.0 μM), the “inhibitory activity of retinoid alone” value is on record as “significant inhibitory activity”.
With 2,4-di-0-acetyl-D-glucaro-1-lactone, the inhibition of beta-glucuronidase result with beta-glucuronidase (urine, intestine and liver) is reported as “effective as inhibitors of beta-glucuronidase”.
Turning to `O=C(O)[C@H](O)[C@@H](O)[C@H](O)[C@H](O)CO` [calcium gluconate, reference compound], in data set [8] (equimolar calcium), the “effect on tumor induction” value is recorded as “no effect”.
